Measured values as given in patent publication US20250333406A1, “SULFONYL CYCLIC DERIVATIVES, AND COMPOSITIONS AND METHODS THEREOF” (Lysoway Therapeutics, Inc., priority 2023, published 2025).

tested on: TFEB; assay: TFEB Nuclear Translocation Assay; assay type: cell-based; conditions: read-out: EC50 of TFEB activation

`CC(C)S(=O)(=O)c1ccc(S(=O)(=O)n2nc(N3CCN(c4ncc(Cl)cn4)CC34CC4)c3c(Cl)cccc32)s1` [Compound 43, 4-chloro-3-[7-(5-chloropyrimidin-2-yl)-4,7-diazaspiro [2.5]octan-4-yl]-1-[(5-isopropylsulfonyl-2-thienyl)sulfonyl]indazole] and `CC(C)S(=O)(=O)c1ccc(S(=O)(=O)n2nc(N3CCN(c4ccc(Cl)cn4)CC34CC4)c3c(Cl)cccc32)s1` [Compound 47, 4-chloro-3-[7-(5-chloro-2-pyridyl)-4,7-diazaspiro[2.5]octan-4-yl]-1-[(5-isopropylsulfonyl-2-thienyl)sulfonyl]indazole] cannot be ordered by EC50: ≤ 1000 nM for the first, ≤ 1000 nM for the second.

`CC(C)S(=O)(=O)c1ccc(S(=O)(=O)n2nc(N3CCN(c4ccc(F)cn4)CC34CC4)c3c(Cl)cccc32)s1` [Compound 42, 4-chloro-3-(7-(5-fluoropyridin-2-yl)-4,7-diazaspiro [2.5]octan-4-yl)-1-((5-(isopropylsulfonyl)thiophen-2-yl)sulfonyl)-1H-indazole] and `CC(C)S(=O)(=O)c1ccc(S(=O)(=O)n2nc(N3CCN(c4ccc(F)cn4)CC34CC4)c3c(Cl)cc(F)cc32)s1` [Compound 41, 4-chloro-6-fluoro-3-[7-(5-fluoro-2-pyridyl)-4,7-diazaspiro [2.5]octan-4-yl]-1-[(5-isopropylsulfonyl-2-thienyl)sulfonyl]indazole] cannot be ordered by EC50: ≤ 1000 nM for the first, ≤ 1000 nM for the second.

`CC(C)S(=O)(=O)n1ccc(S(=O)(=O)n2nc(N3CCN(c4ncc(F)cc4F)CC34CC4)c3c(F)ccc(F)c32)c1` [Compound 144, 3-[7-(3,5-difluoro-2-pyridyl)-4,7-diazaspiro [2.5]octan-4-yl]-4,7-difluoro-1-(1-isopropylsulfonylpyrrol-3-yl) sulfonyl-indazole] and `CC(C)S(=O)(=O)c1nc(S(=O)(=O)n2nc(N3CCN(c4ncc(F)cc4F)CC34CC4)c3c(F)ccc(F)c32)cs1` [Compound 194, 4-[3-[7-(3,5-difluoro-2-pyridyl)-4,7-diazaspiro [2.5]octan-4-yl]-4,7-difluoro-indazol-1-yl]sulfonyl-2-isopropylsulfonyl-thiazole] cannot be ordered by EC50: ≤ 1000 nM for the first, 1000 to 10000 nM for the second.

`CC(C)S(=O)(=O)c1ccc(S(=O)(=O)n2nc(N3CCN(c4ncc(Cl)s4)CC34CC4)c3c(Cl)cccc32)s1` [Compound 46, 5-chloro-2-[4-[4-chloro-1-[(5-isopropylsulfonyl-2-thienyl)sulfonyl]indazol-3-yl]-4,7-diazaspiro [2.5]octan-7-yl]thiazole] and `CC(C)S(=O)(=O)c1ccc(S(=O)(=O)n2nc(N3CCN(CC(F)(F)F)CC34CC4)c3c(Cl)cccc32)s1` [Compound 6, 4-chloro-1-[(5-isopropylsulfonyl-2-thienyl)sulfonyl]-3-[7-(2,2,2-trifluoroethyl)-4,7-diazaspiro [2.5]octan-4-yl]indazole] cannot be ordered by EC50: ≤ 1000 nM for the first, ≤ 1000 nM for the second.

`[2H]c1c(S(=O)(=O)n2nc(N3CCN(c4ncc(F)cn4)CC34CC4)c3c(Cl)cc(F)cc32)c([2H])n(S(=O)(=O)C(C)(C)Cl)c1[2H]` [Compound 181, 4-chloro-1-[1-(1-chloro-1-methyl-ethyl)sulfonyl-2,4,5-trideuterio-pyrrol-3-yl]sulfonyl-6-fluoro-3-[7-(5-fluoropyrimidin-2-yl)-4,7-diazaspiro[2.5]octan-4-yl]indazole] and `CC(C)S(=O)(=O)c1ccc(S(=O)(=O)n2nc(N3CCN(c4ncc(F)cn4)CC34CC4)c3c(Cl)cc(F)cc32)cc1` [Compound 3, 4-chloro-6-fluoro-3-(7-(5-fluoropyrimidin-2-yl)-4,7-diazaspiro [2.5]octan-4-yl)-1-((4-(isopropylsulfonyl)phenyl)sulfonyl)-1H-indazole] cannot be ordered by EC50: ≤ 1000 nM for the first, ≤ 1000 nM for the second.

`CC(C)S(=O)(=O)c1ccc(S(=O)(=O)n2nc(N3CCN(c4ncc(F)cc4F)CC34CC4)c3c(F)cc(F)cc32)cc1` [Compound 28, 3-[7-(3,5-difluoro-2-pyridyl)-4,7-diazaspiro[2.5]octan-4-yl]-4,6-difluoro-1-(4-isopropylsulfonylphenyl)sulfonyl-indazole] and `CN(C)S(=O)(=O)n1ccc(S(=O)(=O)n2nc(N3CCN(c4ncc(F)cn4)CC34CC4)c3c(F)cc(F)cc32)c1` [Compound 169, 3-[4,6-difluoro-3-[7-(5-fluoropyrimidin-2-yl)-4,7-diazaspiro [2.5]octan-4-yl]indazol-1-yl]sulfonyl-N, N-dimethyl-pyrrole-1-sulfonamide] cannot be ordered by EC50: ≤ 1000 nM for the first, ≤ 1000 nM for the second.

`CC(C)S(=O)(=O)n1ccc(S(=O)(=O)n2nc(N3CCOCC34CC4)c3c(Cl)cc(F)cc32)c1` [Compound 190, 4-[4-chloro-6-fluoro-1-(1-isopropylsulfonylpyrrol-3-yl)sulfonyl-indazol-3-yl]-7-oxa-4-azaspiro [2.5]octane] and `CC(C)S(=O)(=O)n1ccc(S(=O)(=O)n2nc(N3CCN(S(C)(=O)=O)CC34CC4)c3c(Cl)cc(F)cc32)c1` [Compound 183, 4-chloro-6-fluoro-1-((1-(isopropylsulfonyl)-1H-pyrrol-3-yl)sulfonyl)-3-(7-(methylsulfonyl)-4,7-diazaspiro [2.5]octan-4-yl)-1H-indazole] cannot be ordered by EC50: ≤ 1000 nM for the first, 1000 to 10000 nM for the second.

`CC(C)S(=O)(=O)c1ccc(S(=O)(=O)n2nc(N3CCC(Cl)=C[C@H]3C(F)(F)F)c3c(Cl)cccc32)cc1` [Compound 81, 4-chloro-3-[(6S)-4-chloro-6-(trifluoromethyl)-3,6-dihydro-2H-pyridin-1-yl]-1-(4-isopropylsulfonylphenyl)sulfonyl-indazole] and `CC(C)S(=O)(=O)c1ccc(S(=O)(=O)n2nc(N3CCN(c4ncc(F)cn4)CC3C(F)(F)F)c3c(Cl)cccc32)cc1` (stereo not drawn) [Compound 67, 4-chloro-3-[4-(5-fluoropyrimidin-2-yl)-2-(trifluoromethyl)piperazin-1-yl]-1-(4-isopropylsulfonylphenyl) sulfonyl-indazole] cannot be ordered by EC50: ≤ 1000 nM for the first, ≤ 1000 nM for the second.

`CC(C)S(=O)(=O)c1ccc(S(=O)(=O)n2nc(N3CCN(c4ncc(F)cn4)CC34CC4)c3c(F)ccc(F)c32)s1` [Compound 34, 4,7-difluoro-3-(7-(5-fluoropyrimidin-2-yl)-4,7-diazaspiro [2.5]octan-4-yl)-1-((5-(isopropylsulfonyl)thiophen-2-yl)sulfonyl)-1H-indazole] and `CC(C)S(=O)(=O)c1nc(S(=O)(=O)n2nc(N3CCN(c4ncc(F)cn4)CC34CC4)c3c(F)ccc(F)c32)cs1` [Compound 195, 4-((4,7-difluoro-3-(7-(5-fluoropyrimidin-2-yl)-4,7-diazaspiro 12.51 octan-4-yl)-1H-indazol-1-yl)sulfonyl)-2-(isopropylsulfonyl) thiazole] cannot be ordered by EC50: ≤ 1000 nM for the first, 1000 to 10000 nM for the second.

`CC(C)S(=O)(=O)n1ccc(S(=O)(=O)n2nc(N3CCN(c4ncc(Cl)s4)CC34CC4)c3c(Cl)cc(F)cc32)c1` [Compound 157, 5-chloro-2-(4-(4-chloro-6-fluoro-1-((1-(isopropylsulfonyl)-1H-pyrrol-3-yl)sulfonyl)-1H-indazol-3-yl)-4,7-diazaspiro [2.5]octan-7-yl) thiazole] and `CC(C)S(=O)(=O)n1ccc(S(=O)(=O)n2nc(N3CCN(c4ccccn4)CC34CC4)c3c(Cl)cc(F)cc32)c1` [Compound 163, 4-chloro-6-fluoro-1-(1-isopropylsulfonylpyrrol-3-yl)sulfonyl-3-[7-(2-pyridyl)-4,7-diazaspiro[2.5]octan-4-yl]indazole] cannot be ordered by EC50: ≤ 1000 nM for the first, ≤ 1000 nM for the second.

`O=S(=O)(c1ccc(C(F)F)cc1)n1nc(N2CCN(c3ncc(F)cn3)CC2C(F)(F)F)c2c(Cl)cccc21` (stereo not drawn) [Compound 77, 4-chloro-1-[4-(difluoromethyl)phenyl]sulfonyl-3-[4-(5-fluoropyrimidin-2-yl)-2-(trifluoromethyl)piperazin-1-yl]indazole] and `CC(F)(F)c1ccc(S(=O)(=O)n2nc(N3CCN(c4ncc(F)cn4)C[C@@H]3C(F)(F)F)c3c(Cl)cccc32)cc1` (single isomer, unassigned) [Compound 107] cannot be ordered by EC50: ≤ 1000 nM for the first, ≤ 1000 nM for the second.

`CC(C)S(=O)(=O)n1ccc(S(=O)(=O)n2nc(N3CCN(c4ncc(Cl)cc4F)CC34CC4)c3c(Cl)cncc32)c1` [Compound 151, 4-chloro-3-[7-(5-chloro-3-fluoro-2-pyridyl)-4,7-diazaspiro [2.5]octan-4-yl]-1-(1-isopropylsulfonylpyrrol-3-yl) sulfonyl-pyrazolo [3,4-c]pyridine] and `O=S(=O)(c1ccc(C(F)(F)F)cc1)n1nc(N2CCN(c3ncc(F)cn3)CC23CC3)c2c(Cl)cccc21` [Compound 113, 4-chloro-3-[7-(5-fluoropyrimidin-2-yl)-4,7-diazaspiro[2.5]octan-4-yl]-1-[4-(trifluoromethyl)phenyl]sulfonyl-indazole] cannot be ordered by EC50: ≤ 1000 nM for the first, ≤ 1000 nM for the second.

`CC(C)S(=O)(=O)c1ccc(S(=O)(=O)n2nc(N3CCN(c4ncc(F)cn4)C[C@H]3C3CC3)c3c(Cl)cccc32)cc1` (single isomer, unassigned) [Compound 61] and `CC(F)(F)c1ccc(S(=O)(=O)n2nc(N3CCN(c4ncc(F)cn4)C[C@H]3C(F)(F)F)c3c(Cl)cccc32)cc1` [Compound 106, 4-chloro-1-[4-(1,1-difluoroethyl)phenyl]sulfonyl-3-[(2S)-4-(5-fluoropyrimidin-2-yl)-2-(trifluoromethyl)piperazin-1-yl]indazole] cannot be ordered by EC50: ≤ 1000 nM for the first, ≤ 1000 nM for the second.

Going from `CC(F)(F)c1ccc(S(=O)(=O)n2nc(N3CCN(c4ncc(F)cn4)CC34CC4)c3c(Cl)cccc32)cc1` [Compound 116, 4-chloro-1-[4-(1,1-difluoroethyl)phenyl]sulfonyl-3-[7-(5-fluoropyrimidin-2-yl)-4,7-diazaspiro[2.5]octan-4-yl]indazole] to `O=S(=O)(n1nc(N2CCN(c3ncc(F)cn3)CC23CC3)c2c(Cl)cccc21)C12CC(F)(C1)C2` [Compound 132, 4-chloro-1-[(3-fluoro-1-bicyclo [1.1.1]pentanyl)sulfonyl]-3-[7-(5-fluoropyrimidin-2-yl)-4,7-diazaspiro [2.5]octan-4-yl]indazole], the EC50 rises from ≤ 1000 nM to ≥ 10000 nM.

`CC(C)S(=O)(=O)c1ccc(S(=O)(=O)n2nc(N3CCN(C(=O)C4CC4)CC34CC4)c3c(Cl)cccc32)cc1` [Compound 57, [4-[4-chloro-1-(4-isopropylsulfonylphenyl)sulfonyl-indazol-3-yl]-4,7-diazaspiro[2.5]octan-7-yl]-cyclopropyl-methanone] and `CC(C)S(=O)(=O)c1ccc(S(=O)(=O)n2nc(N3CCOCC34CC4)c3c(Cl)cccc32)s1` [Compound 7, 4-[4-chloro-1-[(5-isopropylsulfonyl-2-thienyl)sulfonyl]indazol-3-yl]-7-oxa-4-azaspiro [2.5]octane] cannot be ordered by EC50: ≤ 1000 nM for the first, ≤ 1000 nM for the second.
